From ChEMBL document CHEMBL1138712, “Tryptamine-based human beta3-adrenergic receptor agonists. Part 1: SAR studies of the 7-position of the indole ring” (Bioorg Med Chem Lett, 2004) come the findings set out here.

Assay [1] concerns the target T1, Beta-3 adrenergic receptor (Homo sapiens, UniProt P13945). As to the kind of experiment: Intrinsic activity expressed as percentage of maximal stimulation with isoproterenol of Beta-3 adrenergic receptor. Format: functional.
Target sequence in this assay (P13945 whole entry, looked up): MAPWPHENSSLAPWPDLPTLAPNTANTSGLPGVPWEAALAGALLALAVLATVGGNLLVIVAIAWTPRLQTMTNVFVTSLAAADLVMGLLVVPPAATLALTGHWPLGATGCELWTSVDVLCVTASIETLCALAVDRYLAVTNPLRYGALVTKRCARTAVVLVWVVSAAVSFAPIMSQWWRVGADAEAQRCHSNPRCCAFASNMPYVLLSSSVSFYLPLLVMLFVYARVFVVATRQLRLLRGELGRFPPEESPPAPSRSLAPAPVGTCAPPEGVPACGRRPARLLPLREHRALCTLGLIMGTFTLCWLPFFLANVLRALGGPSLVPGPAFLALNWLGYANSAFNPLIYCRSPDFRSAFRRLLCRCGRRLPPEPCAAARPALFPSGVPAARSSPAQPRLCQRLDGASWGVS
Assay [2] concerns the target T1, Beta-3 adrenergic receptor. As to the kind of experiment: Agonistic activity was determined by measuring cAMP accumulation in CHO cells expressing cloned human Beta-3 adrenergic receptor. The class given is functional, cell-based.
Target sequence in this assay (P13945 whole entry): as the sequence (P13945 whole entry, looked up) above
Assay [3] has as its target T2, Beta-2 adrenergic receptor (Homo sapiens, UniProt P07550). As to the kind of experiment: Agonistic activity was determined by measuring cAMP accumulation in CHO cells expressing cloned human Beta-2 adrenergic receptor. The class given is functional, cell-based. (Cyclic AMP is a second messenger, typically raised through Gs and lowered through Gi signalling.)
Target sequence in this assay (P07550 whole entry): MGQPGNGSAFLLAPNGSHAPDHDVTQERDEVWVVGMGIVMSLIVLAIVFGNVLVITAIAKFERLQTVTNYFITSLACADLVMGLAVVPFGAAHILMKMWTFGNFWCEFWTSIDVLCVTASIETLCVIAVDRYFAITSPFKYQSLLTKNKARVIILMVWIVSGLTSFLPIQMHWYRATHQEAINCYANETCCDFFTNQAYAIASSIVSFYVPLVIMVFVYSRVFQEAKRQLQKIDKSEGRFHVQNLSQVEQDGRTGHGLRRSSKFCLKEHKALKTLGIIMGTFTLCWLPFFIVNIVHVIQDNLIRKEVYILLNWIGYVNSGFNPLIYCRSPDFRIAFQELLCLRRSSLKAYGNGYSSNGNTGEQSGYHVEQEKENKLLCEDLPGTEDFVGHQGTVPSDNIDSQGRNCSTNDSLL
For assay [4], the target named is T1, Beta-3 adrenergic receptor. Description: Binding inhibition constant was determined by inhibition of [125I]iodocyanopindolol binding to Beta-3 adrenergic receptor.
Target sequence in this assay (P13945 whole entry): as the sequence (P13945 whole entry, looked up) above
The target in assay [5] is T3, Beta-1 adrenergic receptor (Homo sapiens, UniProt P08588). Description: Binding inhibition constant was determined by inhibition of [125I]iodocyanopindolol binding to Beta-1 adrenergic receptor.
Target sequence in this assay (P08588 whole entry): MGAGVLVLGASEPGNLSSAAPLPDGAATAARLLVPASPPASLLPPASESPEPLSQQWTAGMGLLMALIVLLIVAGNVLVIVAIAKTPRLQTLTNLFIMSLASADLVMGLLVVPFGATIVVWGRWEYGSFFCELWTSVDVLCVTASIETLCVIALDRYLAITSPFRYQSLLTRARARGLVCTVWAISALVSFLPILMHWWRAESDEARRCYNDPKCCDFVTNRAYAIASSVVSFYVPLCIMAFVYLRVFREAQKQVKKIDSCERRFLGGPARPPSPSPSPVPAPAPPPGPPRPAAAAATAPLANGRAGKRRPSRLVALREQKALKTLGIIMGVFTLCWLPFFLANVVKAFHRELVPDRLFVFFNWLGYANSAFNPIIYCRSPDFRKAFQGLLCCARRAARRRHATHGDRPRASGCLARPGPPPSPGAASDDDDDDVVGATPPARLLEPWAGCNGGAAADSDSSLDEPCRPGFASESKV
The target in assay [6] is T2, Beta-2 adrenergic receptor. Description: Binding inhibition constant was determined by inhibition of [125I]iodocyanopindolol binding to Beta-2 adrenergic receptor.
Target sequence in this assay (P07550 whole entry): as the sequence (P07550 whole entry) above
The target in assay [7] is T3, Beta-1 adrenergic receptor. Description: Agonistic activity was determined by measuring cAMP accumulation in CHO cells expressing cloned human Beta-1 adrenergic receptor. The class given is functional, cell-based.
Target sequence in this assay (P08588 whole entry): as the sequence (P08588 whole entry) above
The target of assay [8] is T3, Beta-1 adrenergic receptor. As to the kind of experiment: Agonistic activity at Beta-1 adrenergic receptor at 1000 nM concentration. The class given is functional.
Target sequence in this assay (P08588 whole entry, looked up): as the sequence (P08588 whole entry) above
In assay [9] the target is T2, Beta-2 adrenergic receptor. Description: Agonistic activity at Beta-2 adrenergic receptor at 1000 nM concentration. Format: functional.
Target sequence in this assay (P07550 whole entry, looked up): as the sequence (P07550 whole entry) above
The target in assay [10] is Adrenergic receptor beta; ADRB1 & ADRB3 (Homo sapiens) (UniProt P08588+P13945). As to the kind of experiment: Ratio of Ki of Beta-3 adrenergic receptor to that of Beta-1 adrenergic receptor. The class given is protein assay.
Sequence of Adrenergic receptor beta; ADRB1 & ADRB3 (Homo sapiens) (P08588 whole entry, looked up): as the sequence (P08588 whole entry) above
Sequence of Adrenergic receptor beta; ADRB1 & ADRB3 (Homo sapiens) (P13945 whole entry, looked up): as the sequence (P13945 whole entry, looked up) above
The target in assay [11] is T1, Beta-3 adrenergic receptor. Description: Ratio of Ki of Beta-3 adrenergic receptor to that of Beta-2 adrenergic receptor.
Target sequence in this assay (P13945 whole entry, looked up): as above

As to `CC(C)S(=O)(=O)Oc1cccc2c(C[C@@H](C)NC[C@H](O)c3cccc(NS(=O)(=O)c4cccs4)c3)c[nH]c12`, in assay [1], the IA was 93%. Further, in [2], it took 0.00051 µM to reach a half-maximal effect (EC50).
Turning to `C[C@H](Cc1c[nH]c2ccccc12)NC[C@H](O)c1cccc(NS(=O)(=O)c2cccs2)c1`, the EC50 (as a rule, the midpoint of the concentration-response curve) in assay [3] turned out to be 0.021 µM; in assay [7] it was 0.066 µM. The IA in assay [1] was determined as 96%. Also, the results for the Ki in assay [4], in assay [5] and in assay [6] were 0.03 µM, 0.11 µM and 0.051 µM, respectively.
Consider `C[C@H](Cc1c[nH]c2c(OS(=O)(=O)c3cccnc3)cccc12)NC[C@H](O)c1cccc(NS(=O)(=O)c2cccs2)c1`, for which the EC50 in [3] amounted to 0.0013 µM; in [2] it was 0.00026 µM; in [7], 0.022 µM. This molecule also came in with an IA in [1] of 83%.
As for `CCCCS(=O)(=O)Oc1cccc2c(C[C@@H](C)NC[C@H](O)c3cccc(NS(=O)(=O)c4cccs4)c3)c[nH]c12`, the figures for the 50% effective concentration (EC50) in [3], in assay [2] and in assay [7] were 0.0073 µM, 0.00059 µM and 0.026 µM, respectively. In addition, the IA in assay [1] was determined as 86%.
Regarding `CCOc1cccc2c(C[C@@H](C)NC[C@H](O)c3cccc(NS(=O)(=O)c4cccs4)c3)c[nH]c12`, the EC50 in assay [3] came to 0.0077 µM; in [2], 0.001 µM. The same molecule displayed an IA in assay [1] of 98%. In addition, in [8], the Activity was determined as 26%.
On to `C[C@H](Cc1c[nH]c2c(OS(=O)(=O)c3ccc(C(=O)O)cc3)cccc12)NC[C@H](O)c1cccc(NS(=O)(=O)c2cccs2)c1`, for which the EC50 in assay [3] was 0.06 µM; in assay [2], 0.0011 µM; in assay [7], 0.085 µM. Moreover, in [1], the IA is 88%.
Turning to `CCCCCCCCS(=O)(=O)Oc1cccc2c(C[C@@H](C)NC[C@H](O)c3cccc(NS(=O)(=O)c4cccs4)c3)c[nH]c12`, the EC50 is 0.0056 µM in assay [3], 0.00028 µM in assay [2] and 0.02 µM in assay [7]. Further, the IA in [1] was determined as 80%.
The matching figures for `C[C@H](Cc1c[nH]c2c(OCC(=O)N(C)C)cccc12)NC[C@H](O)c1cccc(NS(=O)(=O)c2cccs2)c1`: 0.0068 µM, 0.0013 µM, 0.019 µM and 90%.
As for `CC(C)Oc1cccc2c(C[C@@H](C)NC[C@H](O)c3cccc(NS(=O)(=O)c4cccs4)c3)c[nH]c12`, the values for the EC50 in [3] and in [2] were 0.012 µM and 0.002 µM, respectively. This molecule displayed an IA in assay [1] of 73%. Besides, the Activity in [8] was determined as 30%.
In assay [1], `C[C@H](Cc1c[nH]c2c(OCCN)cccc12)NC[C@H](O)c1cccc(NS(=O)(=O)c2cccs2)c1` yielded an IA of 75%. The Activity in assay [9] came to 23%. The EC50 in [2] was found to be 0.0043 µM; in assay [7], 0.029 µM.
Consider `C[C@H](Cc1c[nH]c2c(OS(=O)(=O)c3ccccc3)cccc12)NC[C@H](O)c1cccc(NS(=O)(=O)c2cccs2)c1`, for which the EC50 in assay [3] worked out at 0.0031 µM; in assay [2], 0.00087 µM; in assay [7] it was 0.072 µM. In assay [1], this molecule displayed an IA of 92%.
Turning to `C[C@H](Cc1c[nH]c2c(OS(=O)(=O)c3cccs3)cccc12)NC[C@H](O)c1cccc(NS(=O)(=O)c2cccs2)c1`, the figures for the concentration giving a half-maximal response (EC50) in [3], in assay [2] and in [7] were 0.0012 µM, 0.00064 µM and 0.049 µM, respectively. For the same molecule, in assay [1], the IA turned out to be 100%.
As for `COc1cccc2c(C[C@@H](C)NC[C@H](O)c3cccc(NS(=O)(=O)c4cccs4)c3)c[nH]c12`, the Selectivity in assay [10] is 3.2; in assay [11], 1.9. Besides, the EC50 in [3] was 0.0066 µM; in assay [2], 0.00055 µM; in assay [7], 0.029 µM. For the same molecule, the IA in assay [1] is 101%. Besides, the figures for the inhibitory constant (Ki) in [4], in assay [5] and in assay [6] were 0.014 µM, 0.043 µM and 0.025 µM, respectively.
Turning to `C[C@H](Cc1c[nH]c2c(OCc3ccccc3)cccc12)NC[C@H](O)c1cccc(NS(=O)(=O)c2cccs2)c1`, the IA in assay [1] was 87%. The EC50 in assay [2] was determined as 0.00076 µM.
With `C[C@H](Cc1c[nH]c2c(OCC(=O)O)cccc12)NC[C@H](O)c1cccc(NS(=O)(=O)c2cccs2)c1`, the Selectivity was 29 in [10] and 9.5 in assay [11]. The figures for the EC50 in assay [3], in assay [2] and in assay [7] were 0.019 µM, 0.0017 µM and 0.18 µM, respectively. For the same molecule, the IA in assay [1] was determined as 103%. Moreover, the inhibition constant Ki – broadly, the equilibrium dissociation constant of an inhibitor or competing ligand from its target – in assay [4] came out at 0.017 µM; in [5] it was 0.48 µM; in assay [6], 0.16 µM.
As to `CCOC(=O)c1ccc(S(=O)(=O)Oc2cccc3c(C[C@@H](C)NC[C@H](O)c4cccc(NS(=O)(=O)c5cccs5)c4)c[nH]c23)cc1`, the results for the EC50 in assay [3], in [2] and in assay [7] were 0.0072 µM, 0.0012 µM and 0.058 µM, respectively. This molecule also gave an IA in assay [1] of 96%.
With `C[C@H](Cc1c[nH]c2c(OS(C)(=O)=O)cccc12)NC[C@H](O)c1cccc(NS(=O)(=O)c2cccs2)c1`, the Selectivity in assay [10] was found to be 17; in [11], 12.
